According to publication PMC11582173, “Synthesis, cytotoxicity, anti-inflammatory, anti-metastatic and anti-oxidant activities of novel chalcones incorporating 2-phenoxy-N-arylacetamide and thiophene moieties: induction of apoptosis in MCF7 and HEP2 cells” (Naunyn-Schmiedeberg's Archives of Pharmacology, 2024):
“And” between values parts separate entries of the source, which are not always exact repeats. Equal values may be shown once.

Key:
[1] = system: normal African Green monkey kidney cell line (VERO); assay: SRB cytotoxic assay, VERO normal cells; assay type: cell-based; settings: Chlorocebus sabaeus, single dose 100 µg/mL, 48 h, read-out: %Inhibition at100 µg/mL VERO
Method: All the prepared compounds were screened at a concentration of 100 µg/mL against six different human cell lines: human laryngeal carcinoma (HEP2), human colorectal carcinoma (HCT116), human breast carcinoma (MCF7), human Lung carcinoma (A549), human liver carcinoma (HEPG2), and normal African Green monkey kidney cell line (VERO). Doxorubicin was used as a positive control for comparison purposes.
The human laryngeal carcinoma (HEP2), colorectal carcinoma (HCT116), breast carcinoma (MCF7), Lung carcinoma (A549), liver carcinoma (HEPG2), and normal African Green monkey kidney cell line (VERO) were purchased from American Tissue Culture Collection (Rockville, MD, USA). The cells were treated for 48 h with a single dose (100 µg/mL) of all the tested chalcones. […] In brief, the cells were seeded in a 96-well microtiter plate at a concentration of 5×10^3 cells/well in 100 µL fresh RPMI-1640 medium and left to attach to the plates for 24 h. Then, cells were incubated with 100 μL of different concentrations (50, 25, 12.5, 6.25, and 0.0 µg/mL) of 5c in triplicate at 37 °C for 48 h. After that, the cells were fixed with 10 µL cold 100% Trichloroacetic acid (TCA) for 1h at 4 °C. The wells were then washed 1 time with distilled water using (automatic Tecan washer, Germany) and stained for 30 min at room temperature with 50 µL 0.4% SRB dissolved in 1% acetic acid. The plates were air-dried and the dye was solubilized with 100 µl/well of 1M tris base (pH 10.5) for 5 min. The optical density (O.D.) of each well was measured spectrophotometrically at 570 nm with an ELISA microplate reader (Sunrise Tecan reader, Germany) with automatic shaking for 30 seconds before reading. The mean background absorbance was subtracted automatically and mean values for each drug concentration were calculated. The percentage of cell survival was calculated as follows: Survival fraction= O.D. (treated cells)/ O.D. (control cells) (Bhat et al. [2023]).

Caspase 9 = assay: ELISA, Caspase 9 concentration; assay type: cell-based, human
Method: The concentrations of matrix metalloproteinase-2 (MMP2), matrix metalloproteinase-9 (MMP9), Bcl2, BAX, P53, Malondialdehyde (MDA), Glutathione (GSH), caspase 8, caspase 9 and IL-6 were measured quantitatively in 5c treated MCF7 and HEP2 cells using ELISA (Enzyme-Linked Immunosorbent Assay) (Table 4). Gelatinases are a collective word for MMP-2 and MMP-9, where MMP-2 is gelatinase-A and MMP-9 is gelatinase-B. Solid tumor invasion, metastasis, and angiogenesis have long been linked to gelatinases (Das et al. [2021]). […] Bcl2 is a crucial protein that targets apoptosis inhibition. It is regarded as a predictive biomarker or therapeutic target in the diagnosis of cancer due to its broad expression in a variety of cancers (Porter et al. [2009]). […] The pro-apoptotic protein BAX permeabilizes the mitochondrial outer membrane by changing from a cytosolic monomer to a hazardous oligomer triggering the apoptosis process (Fulda and Debatin [2006]). […] P53 transcription factor performs an essential tumor suppressor role by coordinating a wide range of physiological responses, including DNA repair, cell cycle arrest, cellular senescence, cell death, cell differentiation, and metabolism (Liebl and Hofmann [2021]). It was activated in MCF7 and HEP2-treated cells with values (4.28 and 3.109 ng/mL), respectively, compared to their controls (3.44 and 2.06 ng/mL). […]

`COc1ccc(NC(=O)COc2ccc(C=CC(=O)c3cccs3)cc2)cc1` [Compound 5c, N-(4-Methoxyphenyl)-2-(4-(3-oxo-3-(thiophen-2-yl)prop-1-en-1-yl)phenoxy)acetamide] was tested, and the inhibition at 100 µg/mL [1] was 58 ± 1.5%, the Caspase9 concentration (Caspase 9; 5c treated HEP2 cells, untreated 3.70±0.18) was 27.54 ng/mL and 27.54 ± 0.68 ng/mL and the Caspase9 concentration (Caspase 9; 5c treated MCF7 cells, untreated 3.66±0.49) was 28.03 ng/mL and 28.03 ± 0.49 ng/mL.
